Measured values published in the NIST ThermoML archive (doi:10.1007/s10765-005-5572-8).

Tests used:
[1] = 298.15 K; 101 kPa; Liquid
[2] = refractive index (Na D-line) (dimensionless); settings: 298.15 K; 101.33 kPa; Liquid; Standard Abbe refractometry
[3] = refractive index (Na D-line) (dimensionless); xn = mol fraction of the nth substance listed; settings: 298.15 K, 101 kPa, Liquid, Standard Abbe refractometry
[4] = xn = mol fraction of the nth substance listed; settings: 298.15 K, 101 kPa, Liquid

CC(C)CCCC(C)CCCC(C)CCCCC(C)CCCC(C)CCCC(C)C (stereo not drawn) [2,6,10,15,19,23-hexamethyltetracosane]
Settings	mass density [kg/m3]	refractive index	viscosity [mPa·s]
[1]	805.4	–	31.12
[2]	–	1.4474	–

CC(C)CCCC(C)CCCC(C)CCCCC(C)CCCC(C)CCCC(C)C (stereo not drawn) [2,6,10,15,19,23-hexamethyltetracosane] + CCCCCC
Settings	mass density, [4] [kg/m3]	refractive index, [3]	viscosity, [4] [mPa·s]
x1 = 0.0144	663.9	1.3798	0.405
x1 = 0.0481	682.1	1.3904	0.593
x1 = 0.0748	694.2	1.3976	0.727
x1 = 0.1218	711.9	1.4068	0.971
x1 = 0.1779	728.5	1.4153	1.413
x1 = 0.2858	751.4	1.4244	2.923
x1 = 0.3695	764	1.431	4.685
x1 = 0.4258	770.7	1.4349	6.068
x1 = 0.5661	783.6	1.4435	10.15
x1 = 0.718	793.5	1.4468	15.59
x1 = 0.807	798	1.4468	19.6
x1 = 0.8939	801.7	1.447	24.32
x1 = 0.9593	804.1	1.447	28.41
x1 = 0.9943	805.2	1.4472	30.74
x1 = 1	805.4	1.4474	31.12

C1CCCCC1 [cyclohexane]
Settings	mass density [kg/m3]	refractive index	viscosity [mPa·s]
[1]	773.7	–	0.898
[2]	–	1.4235	–

C1CCCCC1 [cyclohexane] + CCCCCC
[4]
Settings	mass density [kg/m3]	viscosity [mPa·s]
x1 = 0.0357	658.2	0.295
x1 = 0.1127	665.9	0.301
x1 = 0.2	674.9	0.312
x1 = 0.3288	688.6	0.342
x1 = 0.462	703.5	0.405
x1 = 0.5424	712.9	0.451
x1 = 0.577	717	0.472
x1 = 0.6703	728.4	0.539
x1 = 0.7543	739.2	0.603
x1 = 0.8703	754.9	0.71
x1 = 0.9451	765.5	0.794
x1 = 0.974	769.7	0.842
x1 = 0.9935	772.7	0.894
x1 = 1	773.7	0.898

CCCCCCCCCC [decane]
Settings	mass density [kg/m3]	refractive index	viscosity [mPa·s]
[1]	726.2	–	0.859
[2]	–	1.41	–

CCCCCCCCCC [decane] + CCCCCC
Settings	mass density, [4] [kg/m3]	refractive index, [3]	viscosity, [4] [mPa·s]
x1 = 0.021	657.1	1.3755	0.296
x1 = 0.0659	662	1.378	0.307
x1 = 0.1584	671.3	1.382	0.337
x1 = 0.233	678.1	1.3854	0.355
x1 = 0.2761	681.8	1.3871	0.377
x1 = 0.3493	687.8	1.39	0.417
x1 = 0.4506	695.3	1.394	0.471
x1 = 0.541	701.4	1.3973	0.518
x1 = 0.6382	707.4	1.4004	0.567
x1 = 0.7836	715.6	1.4045	0.657
x1 = 0.9095	722	1.408	0.772
x1 = 0.9654	724.7	1.4095	0.823
x1 = 0.9936	726	1.4099	0.855
x1 = 1	726.2	1.41	0.859

CCCCCCCCCCCCCCCC [hexadecane]
Settings	mass density [kg/m3]	refractive index	viscosity [mPa·s]
[1]	770.6	–	3.039
[2]	–	1.434	–

CCCCCCCCCCCCCCCC [hexadecane] + CCCCCC
Settings	mass density, [4] [kg/m3]	refractive index, [3]	viscosity, [4] [mPa·s]
x1 = 0.0284	662.1	1.3784	0.322
x1 = 0.0757	673.3	1.386	0.382
x1 = 0.1349	685.7	1.395	0.473
x1 = 0.1842	694.9	1.4006	0.559
x1 = 0.266	708.4	1.4087	0.703
x1 = 0.3427	719.1	1.4147	0.864
x1 = 0.4864	735.5	1.4262	1.205
x1 = 0.503	737.1	1.4266	1.24
x1 = 0.6779	751.8	1.4318	1.735
x1 = 0.7546	757	1.432	2.022
x1 = 0.8927	765.1	1.4322	2.562
x1 = 0.9468	768	1.4332	2.805
x1 = 0.9902	770.1	1.434	3.012
x1 = 1	770.6	1.434	3.039

CCCCCC [hexane]
Settings	mass density [kg/m3]	refractive index	viscosity [mPa·s]
[1]	654.8	–	0.294
[2]	–	1.3745	–

CCCCCC [hexane] + C1CCCCC1
[4], x2 = 0
Settings	mass density [kg/m3]	viscosity [mPa·s]
–	654.8	0.294

CCCCCC [hexane] + CC(C)CCCC(C)CCCC(C)CCCCC(C)CCCC(C)CCCC(C)C
x2 = 0
Settings	mass density [kg/m3]	refractive index	viscosity [mPa·s]
[3]	–	1.3745	–
[4]	654.8	–	0.294

CCCCCC [hexane] + CCCCCCCCCC
x2 = 0
Settings	mass density [kg/m3]	refractive index	viscosity [mPa·s]
[3]	–	1.3745	–
[4]	654.8	–	0.294

CCCCCC [hexane] + CCCCCCCCCCCCCCCC
x2 = 0
Settings	mass density [kg/m3]	refractive index	viscosity [mPa·s]
[3]	–	1.3745	–
[4]	654.8	–	0.294
